According to patent US20230081426A1, “COMPOUNDS AND METHODS FOR KRAS MODULATION AND INDICATIONS THEREFOR” (Plexxikon Inc., priority 2020, published 2023):

Key:
[1] = target: T1, G12V-mutant human KRAS (amino acid residues 1-188) (Homo sapiens, UniProt P01116, G12V); experiment: KRAS Binding Competition Assay (AlphaScreen; biotinylated KRpep-2d analogue), G12V; details: geometric mean, read-out: KRAS GMean IC50 (uM) MUTATION: G12V
T1 construct: G12V-mutant human KRAS (amino acid residues 1-188) with FLAG tag was purified from E. coli; made in house; host or cells: E. coli

[2] = target: T2, G12D-mutant human KRAS (amino acid residues 1-188) (Homo sapiens, UniProt P01116, G12D); experiment: KRAS Binding Disruption Assay (AlphaScreen; biotinylated KRpep-2d analogue or RAF1-RBD), G12D; details: KRAS G12D; geometric mean; read-out: KRAS GMean IC50 (uM) MUTATION: G12D
T2 construct: G12D or G12C-mutant human KRAS (amino acid residues 1-188) with FLAG tag; made in house; host or cells: E. coli
In short: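 AlphaScreen readout: signal falls as compound displaces biotinylated KRpep-2d analogue or RAF1-RBD from mutant KRAS. Both partners at 5-20 nM, 1 h binding at 25° C, then 10 μg/mL Anti-Flag acceptor and streptavidin donor beads for 1 h. IC50 by nonlinear regression of % inhibition.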

SMILES	IC50 [1]	IC50 [2]
CN1CCCC1COc1nc(N2C[C@H]3CC[C@@H](C2)N3C(=O)NC2CN3CCC2CC3)c2ccc(-c3cc(O)cc4ccccc34)c(F)c2n1 (stereo partly drawn) [P-0421, (1R,5S)-3-(8-fluoro-7-(3-hydroxynaphthalen-1-yl)-2-((1-methylpyrrolidin-2-yl)methoxy)quinazolin-4-yl)-N-(quinuclidin-3-yl)-3,8-diazabicyclo[3.2.1]octane-8-carboxamide]	10 to 100 µM	0.0001 to 10 µM
CN1CCCC1COc1nc(N2C[C@H]3CC[C@@H](C2)N3C(=O)NO)c2ccc(-c3cc(O)cc4ccccc34)c(F)c2n1 (stereo partly drawn) [P-0422, (1R,5S)-3-(8-fluoro-7-(3-hydroxynaphthalen-1-yl)-2-((1-methylpyrrolidin-2-yl)methoxy)quinazolin-4-yl)-N-hydroxy-3,8-diazabicyclo[3.2.1]octane-8-carboxamide]	0.0001 to 10 µM	0.0001 to 10 µM
CN1CCCC1COc1nc(N2C[C@H]3CC[C@@H](C2)N3C(=O)NCC(N)=O)c2ccc(-c3cc(O)cc4ccccc34)c(F)c2n1 (stereo partly drawn) [P-0423, (1R,5S)-N-(2-amino-2-oxoethyl)-3-(8-fluoro-7-(3-hydroxynaphthalen-1-yl)-2-((1-methylpyrrolidin-2-yl)methoxy)quinazolin-4-yl)-3,8-diazabicyclo[3.2.1]octane-8-carboxamide]	0.0001 to 10 µM	0.0001 to 10 µM
CN1CCC[C@H]1COc1nc(N2C[C@H]3CC[C@@H](C2)N3C(=O)[C@@H](N)CO)c2ccc(-c3cc(O)cc4ccccc34)c(F)c2n1 [P-0424, (S)-2-amino-1-((1R,5S)-3-(8-fluoro-7-(3-hydroxynaphthalen-1-yl)-2-(((S)-1-methylpyrrolidin-2-yl)methoxy)quinazolin-4-yl)-3,8-diazabicyclo[3.2.1]octan-8-yl)-3-hydroxypropan-1-one]	10 to 100 µM	0.0001 to 10 µM
CN1CCC[C@H]1COc1nc(N2C[C@H]3CC[C@@H](C2)N3C(=O)[C@@H]2C[C@@H](O)CN2)c2ccc(-c3cc(O)cc4ccccc34)c(F)c2n1 [P-0425, ((1R,5S)-3-(8-fluoro-7-(3-hydroxynaphthalen-1-yl)-2-(((S)-1-methylpyrrolidin-2-yl)methoxy)quinazolin-4-yl)-3,8-diazabicyclo[3.2.1]octan-8-yl)((2S,4R)-4-hydroxypyrrolidin-2-yl)methanone]	10 to 100 µM	0.0001 to 10 µM
CNCC(=O)N1[C@@H]2CC[C@H]1CN(c1nc(OC[C@@H]3CCCN3C)nc3c(F)c(-c4cc(O)cc5ccccc45)ccc13)C2 [P-0426, 1-((1R,5S)-3-(8-fluoro-7-(3-hydroxynaphthalen-1-yl)-2-(((S)-1-methylpyrrolidin-2-yl)methoxy)quinazolin-4-yl)-3,8-diazabicyclo[3.2.1]octan-8-yl)-2-(methylamino)ethan-1-one]	10 to 100 µM	0.0001 to 10 µM
CN1CCC[C@H]1COc1nc(N2C[C@H]3CC[C@@H](C2)N3CC(=O)N2CCC(N)CC2)c2ccc(-c3cc(O)cc4ccccc34)c(F)c2n1 [P-0427, 1-(4-aminopiperidin-1-yl)-2-((1R,5S)-3-(8-fluoro-7-(3-hydroxynaphthalen-1-yl)-2-(((S)-1-methylpyrrolidin-2-yl)methoxy)quinazolin-4-yl)-3,8-diazabicyclo[3.2.1]octan-8-yl)ethan-1-one]	100 to 1000 µM	10 to 100 µM
CN1CCC[C@H]1COc1nc(N2C[C@H]3CC[C@@H](C2)N3CC(=O)N2CCOCC2)c2ccc(-c3cc(O)cc4ccccc34)c(F)c2n1 [P-0428, 2-((1R,5S)-3-(8-fluoro-7-(3-hydroxynaphthalen-1-yl)-2-(((S)-1-methylpyrrolidin-2-yl)methoxy)quinazolin-4-yl)-3,8-diazabicyclo[3.2.1]octan-8-yl)-1-morpholinoethan-1-one]	100 to 1000 µM	0.0001 to 10 µM
CN1CCC[C@H]1COc1nc(N2C[C@H]3CC[C@@H](C2)N3C2CNC2)c2ccc(-c3cc(O)cc4ccccc34)c(F)c2n1 [P-0430, 4-(4-((1R,5S)-8-(azetidin-3-yl)-3,8-diazabicyclo[3.2.1]octan-3-yl)-8-fluoro-2-(((S)-1-methylpyrrolidin-2-yl)methoxy)quinazolin-7-yl)naphthalen-2-ol]	100 to 1000 µM	10 to 100 µM
OCCc1nc(N2C[C@H]3CC[C@@H](C2)N3)c2ccc(-c3cc(O)cc4ccccc34)c(F)c2n1 [P-0431, 4-(4-((1R,5S)-3,8-diazabicyclo[3.2.1]octan-3-yl)-8-fluoro-2-(2-hydroxyethyl)quinazolin-7-yl)naphthalen-2-ol]	10 to 100 µM	0.0001 to 10 µM
CS(=O)(=O)CC(=O)N1[C@@H]2CC[C@H]1CN(c1nc(OCC34CCCN3CCC4)nc3c(F)c(-c4cc(O)cc5ccccc45)ccc13)C2 [P-0432, 1-((1R,5S)-3-(8-fluoro-7-(3-hydroxynaphthalen-1-yl)-2-((tetrahydro-1H-pyrrolizin-7a(5H)-yl)methoxy)quinazolin-4-yl)-3,8-diazabicyclo[3.2.1]octan-8-yl)-2-(methylsulfonyl)ethan-1-one]	0.0001 to 10 µM	0.0001 to 10 µM
O=C(Cc1n[nH]c2ccccc12)N1[C@@H]2CC[C@H]1CN(c1nc(OCC34CCCN3CCC4)nc3c(F)c(-c4cc(O)cc5ccccc45)ccc13)C2 [P-0433, 1-((1R,5S)-3-(8-fluoro-7-(3-hydroxynaphthalen-1-yl)-2-((tetrahydro-1H-pyrrolizin-7a(5H)-yl)methoxy)quinazolin-4-yl)-3,8-diazabicyclo[3.2.1]octan-8-yl)-2-(1H-indazol-3-yl)ethan-1-one]	0.0001 to 10 µM	0.0001 to 10 µM
CN1CCN(CCCS(=O)(=O)N2[C@@H]3CC[C@H]2CN(c2nc(OC[C@@H]4CCCN4C)nc4c(F)c(-c5cc(O)cc6ccccc56)ccc24)C3)CC1 [P-0434, 4-(8-fluoro-4-((1R,5S)-8-((3-(4-methylpiperazin-1-yl)propyl)sulfonyl)-3,8-diazabicyclo[3.2.1]octan-3-yl)-2-(((S)-1-methylpyrrolidin-2-yl)methoxy)quinazolin-7-yl)naphthalen-2-ol]	10 to 100 µM	0.0001 to 10 µM
Cc1cccc2c1N(c1ccc3c(N4C[C@H]5CC[C@@H](C4)N5)nc(OC[C@@H]4CCCN4C)nc3c1F)CCC2 [P-0435, 4-((1R,5S)-3,8-diazabicyclo[3.2.1]octan-3-yl)-8-fluoro-7-(8-methyl-3,4-dihydroquinolin-1(2H)-yl)-2-(((S)-1-methylpyrrolidin-2-yl)methoxy)quinazoline]	10 to 100 µM	0.0001 to 10 µM
Cc1cccc2c1N(c1ncc3c(N4C[C@H]5CC[C@@H](C4)N5)nc(OC[C@@H]4CCCN4C)nc3c1F)CC(O)C2 (stereo partly drawn) [P-0436, 1-(4-((1R,5S)-3,8-diazabicyclo[3.2.1]octan-3-yl)-8-fluoro-2-(((S)-1-methylpyrrolidin-2-yl)methoxy)pyrido[4,3-d]pyrimidin-7-yl)-8-methyl-1,2,3,4-tetrahydroquinolin-3-ol]	100 to 1000 µM	0.0001 to 10 µM
Cc1cccc2c(Nc3ccc4c(N5C[C@H]6CC[C@@H](C5)N6)nc(OC[C@@H]5CCCN5C)nc4c3F)n[nH]c12 [P-0437, 4-((1R,5S)-3,8-diazabicyclo[3.2.1]octan-3-yl)-8-fluoro-N-(7-methyl-1H-indazol-3-yl)-2-(((S)-1-methylpyrrolidin-2-yl)methoxy)quinazolin-7-amine]	100 to 1000 µM	10 to 100 µM
